Measurements published in US6676954B2, “Controlled release compositions” (Rohm and Haas Company, priority 2000, dated 2004).
Marks after values point to notes of the source that are not given here.

Columns and labels:
[1] = Salt water (synthetic-seawater) leaching test: 14C-labelled ITA remaining in the marine paint film; assay type: physicochemical
Protocol: The efficacy of the 3-isothiazolone/carbon-based adsorbent compositions of the present invention in a paint film was determined by a salt water (synthetic-seawater) leaching evaluation. An appropriate amount of 4,5-dichloro-2-n-octyl-3-isothiazolone (ITA), together with carbon-based adsorbent (C-1, C-2, C-3):
was added to 10 g of a marine antifouling paint formulation (2 different paint types, P-1 and P-2, see below) in a milling jar to provide a final 3-isothiazolone concentration of 2% based on total combined weight of the 3-isothiazolone/carbon-based adsorbent/paint formulation mixture. Paint films were then drawn on silanized microslides to a thickness of 0.076 mm (0.003 inch) for the rosin-based paint formulation (P-1) and to a thickness of 0.178 mm (0.007 inch) for the polishing type marine antifouling paint (P-2). The paint films were dried for 2 days and then the microslides were placed in a synthetic-seawater fish tank for 1 month. The synthetic-seawater was periodically circulated through a filter cartridge containing activated carbon and Celex™ 20 chelating agent (to remove 3-isothiazolone and copper ions). At various times the paint slides were removed and analyzed. The amount of 4,5-dichloro-2-n-octyl-3-isothiazolone remaining in the paint film after exposure to synthetic-seawater was determined by radioactive labeling (^14C-labeled 4,5-dichloro-2-n-octyl-3-isothiazolone).
The salt water leaching test and radioactive labeling measurements were conducted as follows: a small amount of ^14C-4,5-dichloro-2-n-octyl-3-isothiazolone was incorporated with ^12C-4,5-dichloro-2-n-octyl-3-isothiazolone into paint and the radioactivity of trace ^14C-molecules was measured by a Phosphorimager SI spectrometer (manufactured by Molecular Dynamics Co.); a ratio of 4×10^−5 for ^14C-4,5-dichloro-2-n-octyl-3-isothiazolone to every gram of ^12C-4,5-dichloro-2-n-octyl-3-isothiazolone was used.
The prepared slides were placed in synthetic-seawater prepared as follows: the following ingredients (20 liters deionized water, 1350 g NaCl, 225 g MgCl2.6H2O, and 321.6 g Na2B4O7.10H2O in 6 liters deionized water) were combined and adjusted to a pH of 8.2 with 1.0 M HCl solution, after which the total volume was made up to 30 liters with additional deionized water.
The solid compositions were then evaluated using (1) the salt water leaching test as described in Example 3 and the relative release test (5-day) described in Example 2. A summary of the performance of the three inorganic carriers (diatomaceous earth, aluminosilicate and magnesium silicate) relative to the carbon-based adsorbent (activated carbon) composition of the present invention is presented in Table 4.

[2] = Relative release test: 3-isothiazolone released from the solid composition into water with 0.3% sodium diethylhexylsulfosuccinate (HPLC); assay type: physicochemical; conditions: no paint
Protocol: The amount of 3-isothiazolone compound released from each controlled release composition was determined according to the following general procedure. A weighed amount of controlled release composition (0.014 g, prepared as described in Example 1) was placed in a 250 mL sample jar. To the jar was then added 200 mL of water containing 0.3% of sodium diethylhexylsulfosuccinate. The solution was then gently stirred to ensure no foam was formed. Aliquots (0.5 mL) were taken at 5 and 24 hours and transferred to a microcentrifuge tube. Each aliquot was then centrifuged at 14,000 rpm for 3 minutes. The supernatant was then removed and analyzed by HPLC (high pressure liquid chromatography) for the amount of the 3-isothiazolone compound. The microcentrifuge tube was then washed with 0.5 mL of water containing 0.3% of sodium diethylhexylsulfosuccinate and the wash liquid added to the sample jar. This ensured that none of the particles removed during sampling was lost and that the volume in the jar remained constant.
The solid compositions were then evaluated using (1) the salt water leaching test as described in Example 3 and the relative release test (5-day) described in Example 2. […]

[3] = paint P-1 (rosin-based), 2% ITA, synthetic seawater
[4] = paint P-2 (polishing type), 2% ITA, synthetic seawater

**Q.** Which “% ITA Retained in Paint Film, 0 Days” value [1, 3] does the source give for `CCCCCCCCn1sc(Cl)c(Cl)c1=O` [None, 4,5-dichloro-2-n-octyl-3-isothiazolone] here?
**A.** 100%

**Q.** What about the “% ITA Retained in Paint Film, 7 Days” value [1, 3] of the same compound?
**A.** 82%

**Q.** And the “% ITA Retained in Paint Film, 14 Days (interpolated)” value ([1]; paint P-1 (rosin-based), 2% ITA, synthetic seawater, 14 days, values in are interpolated)?
**A.** (78) %

**Q.** What about the “% ITA Retained in Paint Film, 30 Days” value [1, 3] of the same compound?
**A.** 70%

**Q.** And the “Salt Water Leaching Test (28 Days) (% Retained in Paint Film)” value ([1]; paint P-1, carrier loaded with 30% ITA, 28 days in synthetic seawater)?
**A.** 64%

**Q.** And the “% ITA Retained in Paint Film, 0 Days” value [1, 4]?
**A.** 100%

**Q.** And the “% ITA Retained in Paint Film, 7 Days” value [1, 4]?
**A.** 31-44* %

**Q.** What about the “% ITA Retained in Paint Film, 21 Days” value ([1]; paint P-2 (polishing type), 2% ITA, synthetic seawater, 21 days) of the same compound?
**A.** 18%

**Q.** And the “% ITA Retained in Paint Film, 30 Days” value [1, 4]?
**A.** 13%

**Q.** And the “% 4,5-dichloro-2-n-octyl-3-isothiazolone retained (5-day surfactant solution)” value ([2]; 5-day release test, retention as stated in the text)?
**A.** 0%

**Q.** What about the “5 Day % Released” value ([2]; carrier loaded with 30% ITA, 5-day relative release test in surfactant solution) of the same compound?
**A.** 100%
